From publication PMC12254355 (Nature Communications, 2025) come the findings set out here.

In one data set the test system is human red blood cells. The conditions noted are these: pH 7.4.
The test system of another data set is P. aeruginosa PAO1. The conditions noted are these: PAO1, 24 h.
In the next data set the test system is HEK293T cells. As to conditions: for CC50 vs HEK293T cells (source data of Figure 4a): 24 h.
The test system of the next data set is A. baumannii ATCC 19606. As to conditions: ATCC 19606, 24 h.
A further data set deals with S. aureus ATCC 12600. As to conditions: ATCC 12600, 24 h.
For another data set, the system named is E. coli AIC221. As to conditions: AIC221, 24 h.
For the next data set, the system named is P. aeruginosa PA14. As to conditions: PA14, 24 h.
The subject of data set [1] is S. aureus ATCC BAA-1556 - MRSA. The conditions noted are these: ATCC BAA-1556, 24 h.
The test system of a further data set is K. pneumoniae ATCC 13883. As to conditions: ATCC 13883, 24 h.
Another data set concerns E. coli ATCC 11775. As to conditions: ATCC 11775, 24 h.
Data set [2] relates to E. faecium ATCC 700221 - VRE. As to conditions: ATCC 700221, 24 h.
In data set [3] the test system is 11 clinically relevant pathogens. The data set is classed as cell-based.
The test system of data set [4] is E. faecalis ATCC 700802 - VRE. As to conditions: ATCC 700802, 24 h.
In data set [5] the test system is E. coli AIC222 (polymyxin resistant; colistin-resistant strain). As to conditions: 24 h.

Ends that are not written are not given here.

As to RGLAKLLKIGLKSFARVLKK [Arachnoserver-12], in the data set on human red blood cells, the HC50 is on record as 40.1. The “Minimal Inhibitory Concentration, P. aeruginosa PAO1 (-)” value in the data set with P. aeruginosa PAO1 is 16 µmol/L. In the data set on HEK293T cells, the “CC50 vs HEK293T cells” value turned out to be 8 µmol/L, the SIcytotoxicity came to 2.1 and the “CC50 vs HEK293T cells (source data of Figure 4a)” value came to 8.419 µmol/L. Besides, in the data set with A. baumannii ATCC 19606, the “Minimal Inhibitory Concentration, A. baumannii ATCC 19606 (-)” value was 32 µmol/L. Further, the “Minimal Inhibitory Concentration, S. aureus ATCC 12600 (+)” value in the data set with S. aureus ATCC 12600 is 64 µmol/L. The “Minimal Inhibitory Concentration, E. coli AIC221 (-)” value in the data set on E. coli AIC221 worked out at 4 µmol/L. Moreover, the “Minimal Inhibitory Concentration, P. aeruginosa PA14 (-)” value in the data set on P. aeruginosa PA14 was determined as 8 µmol/L. Moreover, the “Minimal Inhibitory Concentration, S. aureus ATCC BAA-1556 - MRSA (+)” value in data set [1] stood at 64 µmol/L. Besides, the “Minimal Inhibitory Concentration, K. pneumoniae ATCC 13883 (-)” value in the data set with K. pneumoniae ATCC 13883 came to 32 µmol/L. Also, the “Minimal Inhibitory Concentration, E. coli ATCC 11775 (-)” value in the data set with E. coli ATCC 11775 was 16 µmol/L. Further, the “Minimal Inhibitory Concentration, E. faecium ATCC 700221 - VRE (+)” value in [2] turned out to be 8 µmol/L.
For WLGSALKIGAKLL [UniprotKB-2], the HC50 in the data set on human red blood cells came out at 5.529e+042. For the same sequence, in the data set on HEK293T cells, the “CC50 vs HEK293T cells” value came to 8 µmol/L and the “CC50 vs HEK293T cells (source data of Figure 4a)” value is 8.278 µmol/L. Moreover, the “Antimicrobial activity against the pathogen panel (in words)” value in [3] is “no activity”.
In the data set with human red blood cells, KLSGISKVLRAIAKFFK [Arachnoserver-28] returned an HC50 of 38.2. The “Minimal Inhibitory Concentration, P. aeruginosa PAO1 (-)” value in the data set with P. aeruginosa PAO1 was 32 µmol/L. Also, in the data set with HEK293T cells, the “CC50 vs HEK293T cells” value was 6 µmol/L, the SIcytotoxicity was found to be 0.8 and the “CC50 vs HEK293T cells (source data of Figure 4a)” value stood at 6.347 µmol/L. Besides, in the data set with A. baumannii ATCC 19606, the “Minimal Inhibitory Concentration, A. baumannii ATCC 19606 (-)” value worked out at 32 µmol/L. Further, the “Minimal Inhibitory Concentration, S. aureus ATCC 12600 (+)” value in the data set with S. aureus ATCC 12600 came out at 32 µmol/L. For the same sequence, in the data set on E. coli AIC221, the “Minimal Inhibitory Concentration, E. coli AIC221 (-)” value was determined as 32 µmol/L. Also, in the data set on P. aeruginosa PA14, the “Minimal Inhibitory Concentration, P. aeruginosa PA14 (-)” value is 8 µmol/L. Besides, in data set [1], the “Minimal Inhibitory Concentration, S. aureus ATCC BAA-1556 - MRSA (+)” value is 32 µmol/L. Further, in the data set with K. pneumoniae ATCC 13883, the “Minimal Inhibitory Concentration, K. pneumoniae ATCC 13883 (-)” value amounted to 32 µmol/L. In addition, the “Minimal Inhibitory Concentration, E. coli ATCC 11775 (-)” value in the data set with E. coli ATCC 11775 was determined as 64 µmol/L. Besides, in data set [2], the “Minimal Inhibitory Concentration, E. faecium ATCC 700221 - VRE (+)” value came to 8 µmol/L.
Turning to LLHFSIWRSTVLRK [ISOB-4], the HC50 with human red blood cells is on record as 24308.0. In addition, the SIcytotoxicity with HEK293T cells amounted to 9.7. Moreover, the “Minimal Inhibitory Concentration, E. faecalis ATCC 700802 - VRE (+)” value in data set [4] came out at 64 µmol/L. In addition, the “Minimal Inhibitory Concentration, E. faecium ATCC 700221 - VRE (+)” value in [2] was found to be 16 µmol/L.
The sequence “SKKQIRLYLLKYYGKKLFKKRPK [Arachnoserver-19]” had an HC50 in the data set on human red blood cells of 163.3. For the same sequence, the “Minimal Inhibitory Concentration, P. aeruginosa PAO1 (-)” value with P. aeruginosa PAO1 was determined as 16 µmol/L. Besides, in the data set with HEK293T cells, the SIcytotoxicity is given as 2.1 and the “CC50 vs HEK293T cells (source data of Figure 4a)” value was 16.68 µmol/L. The “Minimal Inhibitory Concentration, E. coli AIC221 (-)” value in the data set with E. coli AIC221 amounted to 32 µmol/L. Besides, the “Minimal Inhibitory Concentration, P. aeruginosa PA14 (-)” value with P. aeruginosa PA14 is 16 µmol/L. Moreover, the “Minimal Inhibitory Concentration, E. coli AIC222 (-)” value in data set [5] is 32 µmol/L. In addition, the “Minimal Inhibitory Concentration, E. faecium ATCC 700221 - VRE (+)” value in data set [2] was 8 µmol/L.
In turn, KFLARLVFRKFILL [UniprotKB-13] came in with an HC50 with human red blood cells of 455.9. Moreover, in the data set on HEK293T cells, the “CC50 vs HEK293T cells” value was 27 µmol/L and the SIcytotoxicity is reported as 13.4. In [4], the “Minimal Inhibitory Concentration, E. faecalis ATCC 700802 - VRE (+)” value is 32 µmol/L. For the same sequence, the “Minimal Inhibitory Concentration, E. coli AIC221 (-)” value in the data set on E. coli AIC221 was 8 µmol/L. Also, the “Minimal Inhibitory Concentration, E. coli AIC222 (-)” value in [5] was 32 µmol/L. Moreover, the “Minimal Inhibitory Concentration, K. pneumoniae ATCC 13883 (-)” value in the data set on K. pneumoniae ATCC 13883 is 64 µmol/L. In [2], the “Minimal Inhibitory Concentration, E. faecium ATCC 700221 - VRE (+)” value came out at 2 µmol/L.
